From ChEMBL document CHEMBL1201862, “PubChem BioAssay data set” (2004)
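Dose response: 5 concentrations. Exposure: 48 h. Format: 96-well plates. Endpoint: linear interpolation; highest concentration if not reached. GI50: concentration for 50% inhibition of growth.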 Activity calls are given as the source filed them. No stated cut-off is given here; in the data, active = GI50 up to about 1.1 µM and inactive = higher.

Key:
Experiment in all cases: NCI anticancer screen, dose series, 48 h
KM12 = test system: KM12
NCI-H460 = test system: NCI-H460
SF-268 = test system: SF-268
K562 = test system: K562
UACC-257 = test system: UACC-257
HCT-116 = test system: HCT-116
SF-295 = test system: SF-295
M14 = test system: M14
OVCAR-4 = test system: OVCAR-4
Malme-3M = test system: Malme-3M
NCI-H226 = test system: NCI-H226
SK-MEL-28 = test system: SK-MEL-28
IGROV-1 = test system: IGROV-1
HCC 2998 = test system: HCC 2998
SF-539 = test system: SF-539
ACHN = test system: ACHN
MDA-N = test system: MDA-N
SNB-75 = test system: SNB-75

SMILES | GI50 (KM12) | GI50 (NCI-H460) | GI50 (SF-268) | GI50 (K562) | GI50 (UACC-257) | GI50 (HCT-116) | GI50 (SF-295) | GI50 (M14) | GI50 (OVCAR-4) | GI50 (Malme-3M) | GI50 (NCI-H226) | GI50 (SK-MEL-28) | GI50 (IGROV-1) | GI50 (HCC 2998) | GI50 (SF-539) | GI50 (ACHN) | GI50 (MDA-N) | GI50 (SNB-75)
Cc1cc(S(=O)(=O)Nc2nc3ccccc3nc2-c2cccc([N+](=O)[O-])c2)c(S)cc1Cl | 15.6 µM (inactive) | 11 µM (inactive) | 25.9 µM (inactive) | 26 µM (inactive) | 18.1 µM (inactive) | 18.8 µM (inactive) | 25.1 µM (inactive) | 17.2 µM (inactive) | 27.5 µM (inactive) | 18.5 µM (inactive) | 21.4 µM (inactive) | 15.8 µM (inactive) | 13.2 µM (inactive) | 18.8 µM (inactive) | 22.8 µM (inactive) | 27.8 µM (inactive) | 20.5 µM (inactive) | 
CCOC(=O)COc1cc(-c2ccccc2F)nc2cc3c(cc12)OCO3 | > 100 µM (inactive) |  | > 100 µM (inactive) | 38.1 µM (inactive) | > 100 µM (inactive) | 72.3 µM (inactive) | > 100 µM (inactive) | > 100 µM (inactive) |  | > 100 µM (inactive) | > 100 µM (inactive) | > 100 µM (inactive) | 90.8 µM (inactive) | > 100 µM (inactive) | > 100 µM (inactive) | > 100 µM (inactive) | > 100 µM (inactive) | 59.4 µM (inactive)
O=C(CNc1cccc(Cl)c1)Nn1c(-c2ccccc2)nc2ccccc2c1=O | 10.9 µM (inactive) | 10.5 µM (inactive) | 4.71 µM (inactive) | 2.66 µM (inactive) | 14 µM (inactive) | 1.77 µM (inactive) | 14.1 µM (inactive) | 2.09 µM (inactive) | 3.58 µM (inactive) |  | 13.3 µM (inactive) | 8.02 µM (inactive) | 4.35 µM (inactive) | 10.4 µM (inactive) | 3.69 µM (inactive) | 13.6 µM (inactive) | 9.59 µM (inactive) | 3.61 µM (inactive)
C=CCOC(=O)C1=C(CCC[C@@H](C)O[Si](C)(C)C(C)(C)C)N=C(N)N2[C@H](CCO)CC[C@@H]12 | 11.3 µM (inactive) | 12.9 µM (inactive) | 17.3 µM (inactive) | 6.34 µM (inactive) | 15.6 µM (inactive) | 8.28 µM (inactive) | 12.6 µM (inactive) | 13.9 µM (inactive) | 10.5 µM (inactive) | 18 µM (inactive) | 18.5 µM (inactive) | 17.5 µM (inactive) |  | 18.7 µM (inactive) |  | 17.7 µM (inactive) | 17 µM (inactive) | 16.4 µM (inactive)
CC(=O)Nc1ccccc1S(=O)(=O)c1c(-c2c(C)c(Cl)c(C)c(Cl)c2C)noc1C | > 100 µM (inactive) | 26.5 µM (inactive) | 75.2 µM (inactive) | 33.3 µM (inactive) | 60.7 µM (inactive) | 51.5 µM (inactive) | 32.8 µM (inactive) | 74.3 µM (inactive) | 14.7 µM (inactive) | > 100 µM (inactive) | 27 µM (inactive) | > 100 µM (inactive) | 56.6 µM (inactive) | 90.4 µM (inactive) |  | 55.2 µM (inactive) | 37.2 µM (inactive) | 12.4 µM (inactive)
O=C(O)c1c(CC(Cc2ccc3c(c2)CCC3)C(=O)O)ccc2c1CCC2 (stereo not drawn) | > 100 µM (inactive) | > 100 µM (inactive) |  | > 100 µM (inactive) | > 100 µM (inactive) | > 100 µM (inactive) | > 100 µM (inactive) | > 100 µM (inactive) | > 100 µM (inactive) | > 100 µM (inactive) | > 100 µM (inactive) | > 100 µM (inactive) | > 100 µM (inactive) | > 100 µM (inactive) | > 100 µM (inactive) | > 100 µM (inactive) | > 100 µM (inactive) | 
CC1CN=C(N(C)C(=O)Nc2ccc(Cl)cc2)S1 (stereo not drawn) | 4.72 µM (inactive) | 3.77 µM (inactive) | 41.5 µM (inactive) | 8.61 µM (inactive) | 11.5 µM (inactive) | 4.89 µM (inactive) | 5.14 µM (inactive) | 1.72 µM (inactive) | 65.2 µM (inactive) | 53.1 µM (inactive) |  | 16.5 µM (inactive) | 4.56 µM (inactive) | 4.29 µM (inactive) | 10.6 µM (inactive) | 1.3 µM (inactive) | 8.69 µM (inactive) | > 100 µM (inactive)
COc1ccc(-c2c(C#N)c(N)n(C3OCC(O)C(O)C3O)c(=S)c2C#N)cc1 (stereo not drawn) | > 100 µM (inactive) | > 100 µM (inactive) | > 100 µM (inactive) | > 100 µM (inactive) |  |  | > 100 µM (inactive) | > 100 µM (inactive) |  | > 100 µM (inactive) | > 100 µM (inactive) | > 100 µM (inactive) | > 100 µM (inactive) | > 100 µM (inactive) | > 100 µM (inactive) | > 100 µM (inactive) | > 100 µM (inactive) | > 100 µM (inactive)
O=C1C(C(O)(C(F)(F)Cl)C(F)(F)Cl)CCCC1C(O)(C(F)(F)Cl)C(F)(F)Cl (stereo not drawn) | > 10 µM (inactive) | > 10 µM (inactive) | > 10 µM (inactive) |  | > 10 µM (inactive) | > 10 µM (inactive) | > 10 µM (inactive) | > 10 µM (inactive) | > 10 µM (inactive) | > 10 µM (inactive) | > 10 µM (inactive) | > 10 µM (inactive) | > 10 µM (inactive) | > 10 µM (inactive) | > 10 µM (inactive) | > 10 µM (inactive) | > 10 µM (inactive) | 
CC(C)(C)OC(=O)NC(Cc1ccc([N+](=O)[O-])cc1)C(=O)NC(CCCCNC(=O)OCc1ccccc1)C(=O)ON1C(=O)CCC1=O (stereo not drawn) | > 100 µM (inactive) | > 100 µM (inactive) | 44.2 µM (inactive) | 14.4 µM (inactive) |  | 73.5 µM (inactive) | 40 µM (inactive) | 70.3 µM (inactive) | > 100 µM (inactive) | > 100 µM (inactive) | > 100 µM (inactive) | > 100 µM (inactive) | > 100 µM (inactive) | 24.4 µM (inactive) | > 100 µM (inactive) | > 100 µM (inactive) | > 100 µM (inactive) | > 100 µM (inactive)
COc1cc(CC(C)NC(C)=O)cc(OC)c1 (stereo not drawn) | > 100 µM (inactive) | > 100 µM (inactive) | > 100 µM (inactive) | > 100 µM (inactive) | > 100 µM (inactive) | > 100 µM (inactive) | > 100 µM (inactive) | > 100 µM (inactive) |  | > 100 µM (inactive) | > 100 µM (inactive) | > 100 µM (inactive) | > 100 µM (inactive) | > 100 µM (inactive) | > 100 µM (inactive) | > 100 µM (inactive) | > 100 µM (inactive) | 34.4 µM (inactive)
CC1=CC(=O)c2ccc(C)cc2C1=O [CHIMAPHILIN] | 5.96 µM (inactive) | 14.2 µM (inactive) | 14.3 µM (inactive) | 3.65 µM (inactive) | 12.9 µM (inactive) | 4.44 µM (inactive) | 17.2 µM (inactive) | 16.3 µM (inactive) | 16.7 µM (inactive) |  | 13.8 µM (inactive) | 6.82 µM (inactive) | 15.1 µM (inactive) | 19.8 µM (inactive) | 15.6 µM (inactive) | 7.45 µM (inactive) | 0.394 µM (active) | > 10 µM (inactive)
